Experimental data reported in PubChem BioAssay (NCI).
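Results reflect a 48-hour exposure of cells in 96-well plates to compound at five concentrations. TGI: concentration producing complete growth inhibition.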

Experiments:
Test in all cases: NCI-60 cell line screen, 48 h
HS 578T breast = tested on: HS 578T breast
HT29 colon = tested on: HT29 colon
CAKI-1 renal = tested on: CAKI-1 renal
TK-10 renal = tested on: TK-10 renal
T-47D breast = tested on: T-47D breast
COLO 205 colon = tested on: COLO 205 colon
EKVX NSCLC = tested on: EKVX NSCLC
OVCAR-8 ovarian = tested on: OVCAR-8 ovarian
786-0 renal = tested on: 786-0 renal
MCF7 breast = tested on: MCF7 breast
CCRF-CEM leukemia = tested on: CCRF-CEM leukemia
SK-MEL-28 melanoma = tested on: SK-MEL-28 melanoma
UACC-62 melanoma = tested on: UACC-62 melanoma
NCI-H23 lung = tested on: NCI-H23 lung
HCT-116 colon = tested on: HCT-116 colon
U251 CNS = tested on: U251 CNS
KM12 colon = tested on: KM12 colon
RXF 393 renal = tested on: RXF 393 renal
HCT-15 colon = tested on: HCT-15 colon
MALME-3M melanoma = tested on: MALME-3M melanoma
LOX IMVI melanoma = tested on: LOX IMVI melanoma
HL-60(TB) leukemia = tested on: HL-60(TB) leukemia
OVCAR-5 ovarian = tested on: OVCAR-5 ovarian
SK-OV-3 ovarian = tested on: SK-OV-3 ovarian
NCI-H522 lung = tested on: NCI-H522 lung
SF-295 CNS = tested on: SF-295 CNS
MOLT-4 leukemia = tested on: MOLT-4 leukemia
A498 renal = tested on: A498 renal
PC-3 prostate = tested on: PC-3 prostate
SNB-75 CNS = tested on: SNB-75 CNS
BT-549 breast = tested on: BT-549 breast
NCI-H226 lung = tested on: NCI-H226 lung
M14 melanoma = tested on: M14 melanoma
SK-MEL-5 melanoma = tested on: SK-MEL-5 melanoma
SW-620 colon = tested on: SW-620 colon
MDA-MB-435 = tested on: MDA-MB-435
SK-MEL-2 melanoma = tested on: SK-MEL-2 melanoma
MDA-MB-231 breast = tested on: MDA-MB-231 breast
A549 NSCLC = tested on: A549 NSCLC
UO-31 renal = tested on: UO-31 renal
IGROV1 ovarian = tested on: IGROV1 ovarian
NCI/ADR-RES ovarian = tested on: NCI/ADR-RES ovarian
UACC-257 melanoma = tested on: UACC-257 melanoma
MDA-N = tested on: MDA-N
SF-539 CNS = tested on: SF-539 CNS
ACHN renal = tested on: ACHN renal
SNB-19 CNS = tested on: SNB-19 CNS
HOP-62 NSCLC = tested on: HOP-62 NSCLC
OVCAR-4 ovarian = tested on: OVCAR-4 ovarian
DU-145 prostate = tested on: DU-145 prostate
SN12C renal = tested on: SN12C renal
SF-268 CNS = tested on: SF-268 CNS
NCI-H460 lung = tested on: NCI-H460 lung
RPMI-8226 leukemia = tested on: RPMI-8226 leukemia
OVCAR-3 ovarian = tested on: OVCAR-3 ovarian
SR leukemia = tested on: SR leukemia
HOP-92 NSCLC = tested on: HOP-92 NSCLC
K-562 leukemia = tested on: K-562 leukemia

Q: `CCOC(=O)C1(C/C=C\CBr)CCCCCCC1=O` (centres undefined) was tested. Which TGI (HS 578T breast) did it give?
A: > 100 µM

Q: And the TGI (HT29 colon)?
A: > 100 µM

Q: And the TGI (CAKI-1 renal)?
A: > 100 µM

Q: What about the TGI (TK-10 renal) of the same compound?
A: > 100 µM

Q: What about the TGI (T-47D breast) of the same compound?
A: > 100 µM

Q: What about the TGI (COLO 205 colon) of the same compound?
A: > 100 µM

Q: And the TGI (EKVX NSCLC)?
A: > 100 µM

Q: And the TGI (OVCAR-8 ovarian)?
A: > 100 µM

Q: What about the TGI (786-0 renal) of the same compound?
A: > 100 µM

Q: What about the TGI (MCF7 breast) of the same compound?
A: > 100 µM

Q: And the TGI (CCRF-CEM leukemia)?
A: > 100 µM

Q: What about the TGI (SK-MEL-28 melanoma) of the same compound?
A: > 100 µM

Q: What about the TGI (UACC-62 melanoma) of the same compound?
A: > 100 µM

Q: What about the TGI (NCI-H23 lung) of the same compound?
A: > 100 µM

Q: What about the TGI (HCT-116 colon) of the same compound?
A: > 100 µM

Q: And the TGI (U251 CNS)?
A: > 100 µM

Q: And the TGI (KM12 colon)?
A: > 100 µM

Q: And the TGI (RXF 393 renal)?
A: > 100 µM

Q: And the TGI (HCT-15 colon)?
A: > 100 µM

Q: And the TGI (MALME-3M melanoma)?
A: > 100 µM

Q: And the TGI (LOX IMVI melanoma)?
A: > 100 µM

Q: What about the TGI (HL-60(TB) leukemia) of the same compound?
A: > 100 µM

Q: And the TGI (OVCAR-5 ovarian)?
A: > 100 µM

Q: And the TGI (SK-OV-3 ovarian)?
A: > 100 µM

Q: And the TGI (NCI-H522 lung)?
A: > 100 µM

Q: And the TGI (SF-295 CNS)?
A: > 100 µM

Q: And the TGI (MOLT-4 leukemia)?
A: > 100 µM

Q: What about the TGI (A498 renal) of the same compound?
A: > 100 µM

Q: And the TGI (PC-3 prostate)?
A: > 100 µM

Q: And the TGI (SNB-75 CNS)?
A: > 100 µM

Q: What about the TGI (BT-549 breast) of the same compound?
A: > 100 µM

Q: What about the TGI (NCI-H226 lung) of the same compound?
A: > 100 µM

Q: And the TGI (M14 melanoma)?
A: > 100 µM

Q: What about the TGI (SK-MEL-5 melanoma) of the same compound?
A: > 100 µM

Q: What about the TGI (SW-620 colon) of the same compound?
A: > 100 µM

Q: And the TGI (MDA-MB-435)?
A: > 100 µM

Q: And the TGI (SK-MEL-2 melanoma)?
A: > 100 µM

Q: What about the TGI (MDA-MB-231 breast) of the same compound?
A: > 100 µM

Q: What about the TGI (A549 NSCLC) of the same compound?
A: > 100 µM

Q: And the TGI (UO-31 renal)?
A: > 100 µM

Q: What about the TGI (IGROV1 ovarian) of the same compound?
A: > 100 µM

Q: What about the TGI (NCI/ADR-RES ovarian) of the same compound?
A: > 100 µM

Q: And the TGI (UACC-257 melanoma)?
A: > 100 µM

Q: What about the TGI (MDA-N) of the same compound?
A: > 100 µM

Q: And the TGI (SF-539 CNS)?
A: > 100 µM

Q: What about the TGI (ACHN renal) of the same compound?
A: > 100 µM

Q: And the TGI (SNB-19 CNS)?
A: > 100 µM

Q: And the TGI (HOP-62 NSCLC)?
A: > 100 µM

Q: And the TGI (OVCAR-4 ovarian)?
A: > 100 µM

Q: And the TGI (DU-145 prostate)?
A: > 100 µM

Q: And the TGI (SN12C renal)?
A: > 100 µM

Q: What about the TGI (SF-268 CNS) of the same compound?
A: > 100 µM

Q: Which results are given for `C[C@H]1C(=O)C2=C[C@H]1CCC(=O)[C@]1(C)CCCC(C)(C)[C@H]1C[C@H]2O`?
A: TGI (HS 578T breast): 62.7 µM; TGI (HT29 colon): 28.6 µM; TGI (CAKI-1 renal): > 100 µM; TGI (TK-10 renal): 28.7 µM; TGI (T-47D breast): 32.9 µM; TGI (NCI-H460 lung): 58.9 µM; TGI (RPMI-8226 leukemia): 34.2 µM; TGI (COLO 205 colon): 28.4 µM; TGI (EKVX NSCLC): 31.9 µM; TGI (OVCAR-8 ovarian): 35 µM; TGI (786-0 renal): 32.5 µM; TGI (MCF7 breast): 27.3 µM; TGI (CCRF-CEM leukemia): 75.4 µM; TGI (SK-MEL-28 melanoma): > 100 µM; TGI (UACC-62 melanoma): > 100 µM; TGI (NCI-H23 lung): 57.7 µM; TGI (HCT-116 colon): > 100 µM; TGI (U251 CNS): 28.4 µM; TGI (KM12 colon): 52 µM; TGI (RXF 393 renal): 23.6 µM; TGI (OVCAR-3 ovarian): 84.9 µM; TGI (HCT-15 colon): 34.3 µM; TGI (SR leukemia): 61.3 µM; TGI (MALME-3M melanoma): 43.5 µM; TGI (LOX IMVI melanoma): 35.4 µM; TGI (HL-60(TB) leukemia): 39.7 µM; TGI (OVCAR-5 ovarian): > 100 µM; TGI (SK-OV-3 ovarian): > 100 µM; TGI (NCI-H522 lung): 20.6 µM; TGI (SF-295 CNS): > 100 µM; TGI (MOLT-4 leukemia): > 100 µM; TGI (A498 renal): > 100 µM; TGI (PC-3 prostate): > 100 µM; TGI (SNB-75 CNS): 82.8 µM; TGI (BT-549 breast): 94.5 µM; TGI (HOP-92 NSCLC): 54.3 µM; TGI (NCI-H226 lung): 84.3 µM; TGI (M14 melanoma): 25.9 µM; TGI (SW-620 colon): 28.2 µM; TGI (MDA-MB-435): > 100 µM; TGI (SK-MEL-2 melanoma): > 100 µM; TGI (MDA-MB-231 breast): 20.2 µM; TGI (A549 NSCLC): 43.6 µM; TGI (UO-31 renal): 75.1 µM; TGI (IGROV1 ovarian): > 100 µM; TGI (NCI/ADR-RES ovarian): 74.2 µM; TGI (UACC-257 melanoma): 83.6 µM; TGI (K-562 leukemia): 33.4 µM; TGI (MDA-N): > 100 µM; TGI (SF-539 CNS): 28.8 µM; TGI (ACHN renal): 31.6 µM; TGI (SNB-19 CNS): > 100 µM; TGI (HOP-62 NSCLC): > 100 µM; TGI (OVCAR-4 ovarian): > 100 µM; TGI (DU-145 prostate): 96.8 µM; TGI (SN12C renal): 94.2 µM; TGI (SF-268 CNS): 64 µM
